Experiments:
[1] = tested on: IMR-90 fibroblasts; assay: Selective killing of senescent versus quiescent IMR-90 fibroblasts by SRE-BP activation inhibitors; type: cell-based; conditions: 30 μM
Experimental: FIGS. 1A and 1B. SRE-BP activation inhibitors selectively kill senescent cells. IMR-90 fibroblasts were induced to senesce with either 10 Gy of ionizing radiation (IR), 250 nM doxorubicin [SEN(DOXO)], or quiescent vehicle control (QUI) for 24 hours. Media was then replaced with drug-free growth media, and senescence was allowed to develop for 12 days. On day 12, growth media (10% serum) was replaced with quiescence media (0.2% serum+ITS supplement) for 48 hours to induce quiescence in non-senescent cells. On day 14, media was replaced with quiescence media containing increasing doses of fatostatin (A), xanthohumol (B), PF-429242 (C), or 30 micromolar betulin (D). DMSO served as a 0 micromolar vehicle control. \<0.001

[2] = tested on: senescent cells in the liver; assay: Markers of senescence and SASP factors in liver of high fat diet mice by qRT-PCR; type: in vivo
Experimental: FIGS. 2A, 2B, 2C, and 2D. […] Mice were fed a high fat diet (HFD) or high fat diet with 60 mg/kg xanthohumol (HFD+XN) for 12 weeks. RNA was extracted from mice and analyzed by quantitative PCR for (A) p21^WAF1, (B) p16^INK4a, (C) p15^INK4b, and (D) SASP factors.
Prolonged high fat diet (HFD) induces the generation of senescent cells in the liver. To test the hypothesis that inhibitors of SRE-BP activation are senolytic, two groups of mice were fed a HFD for 12 weeks. A control group was fed a HFD alone (FIG. 2, HFD), and an experimental group (FIG. 2, HFD+XN) was fed a HFD and the SRE-BP activation inhibitor xanthohumol (XN). RNA was isolated from liver samples from each group and subjected to quantitative reverse transcriptase polymerase chain reaction (qRT-PCR). […] Accordingly, the data presented in FIG. 2D supports the hypothesis that SRE-BP activation inhibitors, e.g., xanthohumol, are senolytic.

[3] = SASP factor, mice, HFD + 60 mg/kg xanthohumol for 12 weeks vs HFD alone, liver RNA, qRT-PCR
[4] = mice, HFD + 60 mg/kg xanthohumol for 12 weeks vs HFD alone, liver RNA, qRT-PCR

SMILES | toxicity to senescent cells versus quiescent cells [1] | expression of 2′, 5′ oligoadenylate synthetase 2 (Oas2) [2, 3] | expression of C-C motif chemokine 2 (Ccl2) [2, 3] | expression of arachidonate 5-lipoxygenase (Alox5) [2, 3] | expression of growth differentiation factor 15 (Gdf15) [2, 3] | expression of interleukin 6 (IL-6) [2, 3] | expression of matrix metalloproteinase 3 (MMP3) [2, 3] | expression of plasminogen activator, urokinase (Plau) [2, 3] | expression of prostaglandin-endoperoxide synthase 2 (Ptgs2) [2, 3] | expression of serpin family E member 1 (Serpine1), encoding plasminogen activator inhibitor 1 (PAI-1) [2, 3] | expression of marker of senescence p15^INK4b [2, 4] | expression of marker of senescence p16^INK4a [2, 4] | expression of marker of senescence p21^WAF1 [2, 4] | several genes characteristic of SASP in mouse livers ([2]; summary statement, after administration of xanthohumol, qRT-PCR) | markers of senescence in vivo ([2]; summary statement, mice, HFD + 60 mg/kg xanthohumol for 12 weeks vs HFD)
C=C(C)[C@@H]1CC[C@]2(CO)CC[C@]3(C)[C@H](CC[C@@H]4[C@@]5(C)CC[C@H](O)C(C)(C)[C@@H]5CC[C@]43C)[C@@H]12 [betulin] | significantly more toxic to senescent cells than quiescent cells | – | – | – | – | – | – | – | – | – | – | – | – | – | –
COc1cc(O)c(CC=C(C)C)c(O)c1C(=O)/C=C/c1ccc(O)cc1 [xanthohumol] | – | reduced expression | reduced expression | reduced expression | reduced expression | reduced expression | reduced expression | reduced expression | reduced expression | reduced expression | reduced expression | reduced expression | reduced expression | reduced | lowers markers of senescence

— patent US20250049773A1, “INHIBITION OF STEROL RESPONSE ELEMENT BINDING PROTEINS AS ATARGET FOR SELECTIVE ELIMINATION OF SENESCENT CELLS” (Trustees of Tufts College, priority 2021, published 2025)
